{"source": "patent US9657081B2", "about": "“Inhibiting peptides derived from triggering receptor expressed on myeloid cells-1 (TREM-1) TREM-like transcript 1 (TLT-1) for treatment of cardiovascular diseases” (INSERM (Institut National de la Sante et de la Recherche …, priority 2013, dated 2017)", "key": {"TREM-1 [1]": {"tested_on": "TREM-1", "test": "Rat model of myocardial ischemia-reperfusion, cardiac function by conductance catheter", "type": "in vivo", "parameters": "PRSW: unit not given beside the values; Emax / ESPVR: unit not given here", "conditions": "six weeks after ischemia-reperfusion; 3 mg/kg once a day for 5 days", "method": "Adult male Wistar rats were subjected to myocardial ischemia-reperfusion and were randomly grouped (n=10) to receive repeated TREM-1- and TLT-1-derived peptides (3 mg/kg in 0.2 mL NaCl 0.9% once a day for 5 days) or scrambled-LR12 (3 mg/kg in 0.2 mL NaCl 0.9% once a day for 5 days). Six weeks after myocardial injury, cardiac function was investigated under anaesthesia by using a conductance catheter. Emax, ESPVR, and PRSW were higher in animals treated with TREM-1- and TLT-1-derived peptides than in control rats. All p<0.02 [controls versus LR12]).\nAnimals received same surgery than in permanent ischemia, but with reperfusion of ischemic area by release of the LAD ligation after 60 minutes of ischemia. The same protocol as described above was then applied.\nRats were anaesthetized with isoflurane and a 2 F high-fidelity micro-manometer catheter (SPR-407, Millar Institute, Houston, Tex., USA) was inserted into the LV via the right carotid artery. The Millar catheter was connected to a Harvard Data Acquisition System interfaced with a PC with the AcqKnowledge III software (ACQ 3.2).\nTo investigate the role of TREM-1- and TLT-1-derived peptides in a more relevant model of MI, we performed a transient coronary artery ligation (ischemia-reperfusion model: IR) in rats. After randomisation, animals were then imaged under anaesthesia (micro-TEP) and administered with TREM-1- and TLT-1-derived peptides (3 mg/kg daily for 5 days i.p.) or LR12-scrambled peptide. Imaging was then repeated at 6 weeks before we studied cardiac function by using a conductance catheter (Millar)."}, "TREM-1 [2]": {"biological_target": "T1, TREM-1 (Mus musculus, UniProt Q9JKE2)", "T1 construct": "endogenous in cells; host or cells: living mice (C57BL, Balb/c, ApoE-/-), in vivo", "T1 sequence (Q9JKE2 21-230)": "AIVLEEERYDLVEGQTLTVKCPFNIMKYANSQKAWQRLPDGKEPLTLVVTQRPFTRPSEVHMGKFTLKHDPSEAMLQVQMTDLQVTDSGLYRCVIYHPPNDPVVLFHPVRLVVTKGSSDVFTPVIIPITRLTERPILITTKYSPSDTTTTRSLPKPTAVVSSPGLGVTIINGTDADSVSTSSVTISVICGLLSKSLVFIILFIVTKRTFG", "test": "Mouse model of myocardial infarction, survival", "type": "in vivo", "conditions": "100 μg daily for 5 days i.p., beginning 60 min after ligation; Log-Rank p<0.01", "method": "Adult male Balb/c mice (20-23 g) were subjected to myocardial ischemia and were randomly grouped (n=10-15 per group) to receive repeated TREM-1- and TLT-1-derived peptides (100 μg in 0.2 mL NaCl 0.9% once a day for 5 days), scrambled-LR12 (100 μg in 0.2 mL NaCl 0.9% once a day for 5 days), or 10 μg anti-TREM-1 mAb in 0.2 mL NaCl 0.9% i.p. injections. Survival was monitored over 1 wk and analyzed by Log Rank test. (There were no deaths after the 5th day). Data are representative of at least 15 different experiments.\nAll procedures were performed on mice male C57BL/C ranging in age from 6-8 weeks. Mice were anesthetized by an intraperitoneal injection of xylazine (60 mg/kg) and fixed in supine position. The trachea was intubated and ventilated (the tidal volume was 200 μl/25 g and the respiratory rate was 120 breaths/min). After a left thoracotomy, the left coronary artery was identified and ligated with an 8-0 prolene surgical suture at 1.0 mm distal from tip of the left auricle. LAD occlusion was confirmed by a change in myocardial color from red to white in the ischemia area (Left ventricle). The chest was closed and the skin was sutured with 6-0 silk. […]\nMice were monitored after surgery for mortality. Mice were randomized to receive or not peptides (daily ip injection for 5 days, 5 mg/kg) and monitored for survival. […]"}}}
{"sequence": "LQEEDAGEYGCM (listed as Homo sapiens) [TLT1-LR12]", "values": [{"measurement": "ESPVR", "setting": "TREM-1 [1]", "value": "2.2 ± 0.1"}, {"measurement": "Emax", "setting": "TREM-1 [1]", "value": "4.8 ± 0.5"}, {"measurement": "PRSW", "setting": "TREM-1 [1]", "value": "103 ± 5"}, {"measurement": "survival after permanent coronary artery ligation", "setting": "TREM-1 [2]", "value": "All but 1 LR12-treated animals survived"}]}
